Reference: patent publication US20250368633A1, “AZEPINE FUSED RING COMPOUND AS RIPK1 INHIBITOR AND USE THEREOF” (ARTIVILA BIOPHARMA, priority 2022, published 2025)

Experiments:
RIPK1 kinase = biological target: T1, RIPK1 kinase (Homo sapiens, UniProt Q13546); assay: In vitro RIPK1 kinase activity IC50 assay (ADP-Glo); format: biochemical; details: ATP 10 μM; MBP substrate 100 μg/mL; 8 concentration points; read-out: IC50 range of compounds for RIPK1 kinase activity
T1 construct: purchased Promega VA7593
T1 sequence (Q13546 1-671): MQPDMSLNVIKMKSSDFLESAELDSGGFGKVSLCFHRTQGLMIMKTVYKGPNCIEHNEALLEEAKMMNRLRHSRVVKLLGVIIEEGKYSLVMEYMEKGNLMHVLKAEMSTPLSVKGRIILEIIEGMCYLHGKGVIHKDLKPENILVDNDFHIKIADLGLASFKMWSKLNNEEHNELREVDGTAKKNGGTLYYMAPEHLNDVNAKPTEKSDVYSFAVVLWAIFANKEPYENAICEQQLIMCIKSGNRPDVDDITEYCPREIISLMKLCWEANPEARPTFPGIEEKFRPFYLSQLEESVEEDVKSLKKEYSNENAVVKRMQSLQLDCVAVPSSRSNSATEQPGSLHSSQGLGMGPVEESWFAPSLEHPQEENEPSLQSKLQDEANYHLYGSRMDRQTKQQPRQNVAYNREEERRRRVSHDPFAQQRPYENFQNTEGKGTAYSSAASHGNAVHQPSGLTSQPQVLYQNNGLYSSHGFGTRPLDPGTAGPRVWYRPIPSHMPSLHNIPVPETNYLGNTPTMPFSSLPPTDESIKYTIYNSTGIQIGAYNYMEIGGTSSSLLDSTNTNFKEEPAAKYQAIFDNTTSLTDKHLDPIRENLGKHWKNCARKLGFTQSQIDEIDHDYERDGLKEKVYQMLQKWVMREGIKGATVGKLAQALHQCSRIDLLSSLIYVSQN
Procedure, shortened: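 Human RIPK1 preincubated 15 min at room temperature with compound (8-point 1:5 dilution series, 1% DMSO in kinase buffer D). Reaction then ran 1 h with 10 μM ATP and 100 μg/mL MBP substrate; ADP measured by ADP-Glo luminescence, IC50 from four-parameter nonlinear fit.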

U937 cells = assay: Inhibition rate of compound (1 μM) on necroptosis of U937 cells (TSZ-induced, CellTiter-Glo); format: cell-based; details: TSZ (hTNF-α, SM-164, Z-VAD-FMK) 20 hours
Procedure, shortened: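 U937 cells were pretreated 15 min with compound, then necroptosis was triggered with TSZ (Z-VAD-FMK, hTNF-α, SM-164) for 20 h at 37° C. Viability was read as ATP by CellTiter-Glo luminescence, and inhibition (%) was taken relative to no-TSZ and TSZ-only wells.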

| IC50 (RIPK1 kinase) | Compound | Inhibition rate range of compounds (1 μM) on U937 cell necroptosis (U937 cells) |
| --- | --- | --- |
| < 0.1 µM | COC(=O)C1(C#Cc2ccc3c(c2)N(C)C(=O)[C@@H](NC(=O)C(=O)NCCc2ccccc2)CO3)CC1 [Example 96, methyl (S)-1-((5-methyl-4-oxo-3-(2-oxo-2-(phenethylamino)acetamido)-2,3,4,5-tetrahydrobenzo[b][1,4]oxazepin-7-yl)ethynyl)cyclopropane-1-carboxylate] | B (B: 50-89%) |
| < 0.1 µM | CN1C(=O)[C@@H](NC(=O)C(=O)NCCc2cccs2)COc2ccccc21 [Example 97, (S)—N^1-(5-methyl-4-oxo-2,3,4,5-tetrahydrobenzo[b][1,4]oxazepin-3-yl)-N^2-(2-(thiophen-2-yl)ethyl)oxalamide] | A (A: ≥90%) |
| < 0.1 µM | CN1C(=O)[C@@H](NC(=O)C(=O)NCCc2ccsc2)COc2ccccc21 [Example 98, (S)—N-(5-methyl-4-oxo-2,3,4,5-tetrahydrobenzo[b][1,4]oxazepin-3-yl)-N^2-(2-(thiophen-3-yl)ethyl)oxalamide] | A (A: ≥90%) |
